Assay results reported in ChEMBL document CHEMBL3885861, “Open TG-GATES”.

Organism: Rattus norvegicus
Assay: Open TG-GATES - Regimen: Daily Repeat
Format: toxicity, organism-based, Sprague-Dawley
Design: regimen Daily Repeat, gender Male, age 6 weeks
Settings: in vivo, po, 0 mg/kg, route gavage, dose level Control; for APTT / Bas / Eos / Fbg / Hb / Ht / Lym / MCH / MCHC / MCV / Mono / Neu / PT / Plat / RBC / Ret / WBC: tissue Blood; for LIVER: tissue Liver; for A/G / ALP / ALT / AST / BUN / CRE / Ca / Cl / DBIL / GLC / IP / K / LDH / Na / PL / RALB / TBIL / TC / TG / TP / gamma-GTP: tissue Plasma

Structure (SMILES): O=[N+]([O-])c1ccc(O)c([N+](=O)[O-])c1 [2,4-DINITROPHENOL]
- TERMINAL_BW (72 h, time 3 day): 246.4 g
- APTT (72 h, time 3 day): 16.7 s
- Bas (72 h, time 3 day): 0%
- Eos (72 h, time 3 day): 1.2%
- Fbg (72 h, time 3 day): 265 mg/dL
- Hb (72 h, time 3 day): 12.8 g/dL
- Ht (72 h, time 3 day): 38.3%
- Lym (72 h, time 3 day): 74.4%
- MCH (72 h, time 3 day): 21.4 pg
- MCHC (72 h, time 3 day): 33.5%
- MCV (72 h, time 3 day): 64 fL
- Mono (72 h, time 3 day): 4.8%
- Neu (72 h, time 3 day): 19.8%
- PT (72 h, time 3 day): 11.6 s
- Plat (72 h, time 3 day): 131.4 x10_4/uL
- RBC (72 h, time 3 day): 599.4 x10_4/ul
- Ret (72 h, time 3 day): 6%
- WBC (72 h, time 3 day): 119.4 x10_2/uL
- LIVER (72 h, time 3 day): 11.9 g
- A/G (72 h, time 3 day): 2.3
- ALP (72 h, time 3 day): 1481 IU/L
- ALT (72 h, time 3 day): 33.8 IU/L
- AST (72 h, time 3 day): 62.6 IU/L
- BUN (72 h, time 3 day): 15.6 mg/dL
- CRE (72 h, time 3 day): 0.4 mg/dL
- Ca (72 h, time 3 day): 11.6 mg/dL
- Cl (72 h, time 3 day): 103.2 meq/L
- DBIL (72 h, time 3 day): 0.01 mg/dL
- GLC (72 h, time 3 day): 183 mg/dL
- IP (72 h, time 3 day): 7.4 mg/dL
- K (72 h, time 3 day): 4.7 meq/L
- LDH (72 h, time 3 day): 91.6 IU/L
- Na (72 h, time 3 day): 138.2 meq/L
- PL (72 h, time 3 day): 156.2 mg/dL
- RALB (72 h, time 3 day): 3.9 g/dL
- TBIL (72 h, time 3 day): 0.034 mg/dL
- TC (72 h, time 3 day): 84.2 mg/dL
- TG (72 h, time 3 day): 137 mg/dL
- TP (72 h, time 3 day): 5.6 g/dL
- gamma-GTP (72 h, time 3 day): 0.8 IU/L
- TERMINAL_BW ([…], time 7 day): 271.5 g
- TERMINAL_BW ([…], time 14 day): 341.5 g
- TERMINAL_BW ([…], time 28 day): 452.7 g
- APTT ([…], time 7 day): 16 s
- Bas ([…], time 7 day): 0%
- Eos ([…], time 7 day): 1%
- Fbg ([…], time 7 day): 247 mg/dL
- Hb ([…], time 7 day): 13.5 g/dL
- Ht ([…], time 7 day): 39.8%
- Lym ([…], time 7 day): 77.2%
- MCH ([…], time 7 day): 21.5 pg
- MCHC ([…], time 7 day): 33.9%
- MCV ([…], time 7 day): 63.4 fL
- Mono ([…], time 7 day): 5%
- Neu ([…], time 7 day): 16.8%
- PT ([…], time 7 day): 11.6 s
- Plat ([…], time 7 day): 133.8 x10_4/uL
- RBC ([…], time 7 day): 629 x10_4/ul
- Ret ([…], time 7 day): 5%
- WBC ([…], time 7 day): 101.8 x10_2/uL
- APTT ([…], time 14 day): 16.5 s
- Bas ([…], time 14 day): 0%
- Eos ([…], time 14 day): 1%
- Fbg ([…], time 14 day): 243.2 mg/dL
- Hb ([…], time 14 day): 13.8 g/dL
- Ht ([…], time 14 day): 40.7%
- Lym ([…], time 14 day): 73%
- MCH ([…], time 14 day): 20.9 pg
- MCHC ([…], time 14 day): 33.9%
- MCV ([…], time 14 day): 61.7 fL
- Mono ([…], time 14 day): 5%
- Neu ([…], time 14 day): 21%
- PT ([…], time 14 day): 11.6 s
- Plat ([…], time 14 day): 130 x10_4/uL
- RBC ([…], time 14 day): 660.8 x10_4/ul
- Ret ([…], time 14 day): 3.9%
- WBC ([…], time 14 day): 124.2 x10_2/uL
- APTT ([…], time 28 day): 15.9 s
- Bas ([…], time 28 day): 0%
- Eos ([…], time 28 day): 1%
- Fbg ([…], time 28 day): 278.4 mg/dL
- Hb ([…], time 28 day): 14.8 g/dL
- Ht ([…], time 28 day): 43.5%
- Lym ([…], time 28 day): 78.4%
- MCH ([…], time 28 day): 19.6 pg
- MCHC ([…], time 28 day): 34%
- MCV ([…], time 28 day): 57.7 fL
- Mono ([…], time 28 day): 5.6%
- Neu ([…], time 28 day): 15.4%
- PT ([…], time 28 day): 11.6 s
- Plat ([…], time 28 day): 117.2 x10_4/uL
- RBC ([…], time 28 day): 754.6 x10_4/ul
- Ret ([…], time 28 day): 2.8%
- WBC ([…], time 28 day): 107.4 x10_2/uL
- LIVER ([…], time 7 day): 13.1 g
- LIVER ([…], time 14 day): 16.5 g
- LIVER ([…], time 28 day): 19.9 g
- A/G ([…], time 7 day): 2.2
- ALP ([…], time 7 day): 1556.6 IU/L
- ALT ([…], time 7 day): 38.6 IU/L
- AST ([…], time 7 day): 68.8 IU/L
- BUN ([…], time 7 day): 18.2 mg/dL
- CRE ([…], time 7 day): 0.4 mg/dL
- Ca ([…], time 7 day): 11.4 mg/dL
- Cl ([…], time 7 day): 105.8 meq/L
- DBIL ([…], time 7 day): 0.014 mg/dL
- GLC ([…], time 7 day): 182.2 mg/dL
- IP ([…], time 7 day): 7.7 mg/dL
- K ([…], time 7 day): 4.7 meq/L
- LDH ([…], time 7 day): 107 IU/L
- Na ([…], time 7 day): 141.2 meq/L
- PL ([…], time 7 day): 154.8 mg/dL
- RALB ([…], time 7 day): 3.8 g/dL
- TBIL ([…], time 7 day): 0.028 mg/dL
- TC ([…], time 7 day): 80 mg/dL
- TG ([…], time 7 day): 162.4 mg/dL
- TP ([…], time 7 day): 5.5 g/dL
- gamma-GTP ([…], time 7 day): 0.8 IU/L
- A/G ([…], time 14 day): 2
- ALP ([…], time 14 day): 1126.4 IU/L
- ALT ([…], time 14 day): 33.4 IU/L
- AST ([…], time 14 day): 59.6 IU/L
- BUN ([…], time 14 day): 18.4 mg/dL
- CRE ([…], time 14 day): 0.3 mg/dL
- Ca ([…], time 14 day): 11.4 mg/dL
- Cl ([…], time 14 day): 104.2 meq/L
- DBIL ([…], time 14 day): 0.012 mg/dL
- GLC ([…], time 14 day): 186 mg/dL
- IP ([…], time 14 day): 7.4 mg/dL
- K ([…], time 14 day): 4.6 meq/L
- LDH ([…], time 14 day): 101.6 IU/L
- Na ([…], time 14 day): 136.8 meq/L
- PL ([…], time 14 day): 151.4 mg/dL
- RALB ([…], time 14 day): 4 g/dL
- TBIL ([…], time 14 day): 0.024 mg/dL
- TC ([…], time 14 day): 72.8 mg/dL
- TG ([…], time 14 day): 182 mg/dL
- TP ([…], time 14 day): 6 g/dL
- gamma-GTP ([…], time 14 day): 0 IU/L
- A/G ([…], time 28 day): 1.8
- ALP ([…], time 28 day): 930.8 IU/L
- ALT ([…], time 28 day): 30.8 IU/L
- AST ([…], time 28 day): 58.6 IU/L
- BUN ([…], time 28 day): 20.2 mg/dL
- CRE ([…], time 28 day): 0.5 mg/dL
- Ca ([…], time 28 day): 11.2 mg/dL
- Cl ([…], time 28 day): 103.4 meq/L
- DBIL ([…], time 28 day): 0.016 mg/dL
- GLC ([…], time 28 day): 195.4 mg/dL
- IP ([…], time 28 day): 7.2 mg/dL
- K ([…], time 28 day): 4.4 meq/L
- LDH ([…], time 28 day): 108.8 IU/L
- Na ([…], time 28 day): 140.6 meq/L
- PL ([…], time 28 day): 161.6 mg/dL
- RALB ([…], time 28 day): 4 g/dL
- TBIL ([…], time 28 day): 0.036 mg/dL
- TC ([…], time 28 day): 79.8 mg/dL
- TG ([…], time 28 day): 228.8 mg/dL
- TP ([…], time 28 day): 6.2 g/dL
- gamma-GTP ([…], time 28 day): 0.4 IU/L
